The source of these data is patent US20240033238A1, “COMBINATION OF COMPOUNDS FOR USE IN THERAPY” (B&A ONCOMEDICAL, priority 2022, published 2024).

For one data set, the system named is glioblastoma. Particulars: rodent glioblastoma models; shifted from 20 days; cited from earlier work.
The test system of data set [1] is K^+ influx in HEK293 cells. In words: K+ influx in HEK293 cells (FIG. 1A). Conditions: ouabain 100 uM. Format: cell-based, human.
The next data set concerns the target T1, NKCC1 (Homo sapiens, UniProt P55011).
T1 construct: endogenous in cells; host or cells: HEK293
T1 sequence (P55011 1-1212): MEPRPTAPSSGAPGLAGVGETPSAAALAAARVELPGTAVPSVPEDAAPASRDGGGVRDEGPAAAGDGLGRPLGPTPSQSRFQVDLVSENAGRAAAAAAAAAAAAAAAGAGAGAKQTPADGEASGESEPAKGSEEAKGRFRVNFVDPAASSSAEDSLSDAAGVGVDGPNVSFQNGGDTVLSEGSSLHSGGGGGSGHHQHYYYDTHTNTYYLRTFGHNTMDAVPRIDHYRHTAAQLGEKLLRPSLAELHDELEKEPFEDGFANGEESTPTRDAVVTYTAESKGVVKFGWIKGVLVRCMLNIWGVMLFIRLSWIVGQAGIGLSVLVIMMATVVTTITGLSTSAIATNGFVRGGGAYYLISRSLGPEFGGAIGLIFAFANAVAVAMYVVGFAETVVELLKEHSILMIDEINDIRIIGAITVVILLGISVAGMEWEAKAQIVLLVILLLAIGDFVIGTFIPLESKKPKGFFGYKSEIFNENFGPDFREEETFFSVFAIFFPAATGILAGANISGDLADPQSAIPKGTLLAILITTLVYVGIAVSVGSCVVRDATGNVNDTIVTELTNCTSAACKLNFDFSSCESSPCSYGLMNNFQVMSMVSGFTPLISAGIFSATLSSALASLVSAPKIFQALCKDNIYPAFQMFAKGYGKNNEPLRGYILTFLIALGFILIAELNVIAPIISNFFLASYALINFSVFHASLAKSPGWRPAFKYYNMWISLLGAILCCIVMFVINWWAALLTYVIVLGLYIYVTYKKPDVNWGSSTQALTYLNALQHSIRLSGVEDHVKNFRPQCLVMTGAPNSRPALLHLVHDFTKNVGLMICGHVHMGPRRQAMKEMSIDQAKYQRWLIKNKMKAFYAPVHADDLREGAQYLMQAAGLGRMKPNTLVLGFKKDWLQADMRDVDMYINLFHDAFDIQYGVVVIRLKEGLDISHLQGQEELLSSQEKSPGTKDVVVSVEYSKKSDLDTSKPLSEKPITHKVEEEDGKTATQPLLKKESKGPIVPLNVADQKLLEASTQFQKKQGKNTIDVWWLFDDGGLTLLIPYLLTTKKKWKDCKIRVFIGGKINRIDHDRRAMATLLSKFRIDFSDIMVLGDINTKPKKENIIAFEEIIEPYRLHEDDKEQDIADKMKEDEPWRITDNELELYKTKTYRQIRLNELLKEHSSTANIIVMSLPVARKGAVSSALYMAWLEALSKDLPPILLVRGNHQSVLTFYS
In words: dose response on NKCC1-mediated K+ influx (FIG. 1B). Conditions: HEK293 cells, dose response curves. Format: cell-based.

The subject of a further data set is U87 cell lines. Put plainly: cytotoxicity in GFP transfected U87 cells (cell number). Type of data set: cell-based, human. Particulars: for reduction of number of cells: U87, 0.1 μm; for reduction of cell number / cytotoxic effect (in words): U87, 10 μm; for cytotoxic effect (in words): bumetanide at day 3 and day 5. As to the method: The HEK cell line is a specific immortalised cell line widely used in cell biology and biotechnology research and the U87 cell line is a human glioblastoma cell line that is commonly used in brain cancer research.
The effects of bumetanide alone or in combination with mebendazole were investigated in U87 cell lines at 0.1, 1, and 10 μm. Each experiment was performed in triplicate (n=3). Cells were GFP transfected (green). Cytotoxicity is manifested by loss of GFP and presence of small round flat cells loosing GFP expression indicative of cell death (apoptosis).

Data set [2] concerns U87 cells. In words: scratch test (invasion of tumour cells). Format: cell-based, human. Particulars: U87, 0.1 μm; for reduction of invasion: day 5, compared to controls not treated; for anti-invasive action (persistence of a trench): day 8. From the text:
To further investigate invasion of tumour cells, we performed a scratch test. This test enables to visualize the propagation and metastasis of tumour cells determined by their capacity to cross the trench. Therefore, U87 cells are cultivated and a scratch is made with a blade in order to estimate the strength and rapidity of invasion.

Data set [3] deals with U87 cells. In words: immunochemistry (Dapi, iodure propidium, Actin/GFP) viability of cells. Format: cell-based, human. Particulars: U87, 1 μm; control: 3%. The source says:
The labels used are Dapi (blue) iodure propidium (red) and Actin immunocytochemistry with GFP (green) in order to visualize the viability and non-viability of cells.
To better illustrate the effects of bumetanide and mebendazole, we used Dapi (blue) iodure propidium (red) and Actin immunocytochemistry with GFP (green) in order to visualize the viability and non-viability of cells.

Structures are written as SMILES.

Consider `CCCSc1ccc2nc(NC(=O)OC)[nH]c2c1` [ABZ, albendazole], for which the mean survival in the data set with glioblastoma is given as 36 days.
For the molecule `CCCCNc1cc(C(=O)O)cc(S(N)(=O)=O)c1Oc1ccccc1` [bumetanide], the “inhibition of K+ influx” value in data set [1] came out at 49%. The EC50 (commonly the concentration at which the effect is half-maximal) at NKCC1 is 312 nM. Also, the “reduction of number of cells” value in the data set on U87 cell lines (day 3) is “not”. Moreover, the “reduction of number of cells” value with U87 cell lines (day 5) is “not”. Further, the “reduction of cell number” value with U87 cell lines (day 8) came to 18%. For the same molecule, in the data set with U87 cell lines, the “cytotoxic effect (in words)” value is “strong cytotoxic action”. In the data set with U87 cells [2], the reduction of invasion is on record as 40% and the “anti-invasive action (persistence of a trench)” value is “neither applications of mebendazole or bumetanide separately produced an anti-invasive action”. In addition, the “dead cells / reduction of cell density” value in the data set with U87 cells [3] was 3,2%.
On to `COC(=O)Nc1nc2ccc(C(=O)c3ccccc3)cc2[nH]1` [mebendazole, methyl N-[6-(benzoyl)-1H-benzimidazol-2-yl] carbamate], for which, in data set [1], the “inhibition of K+ influx” value is reported as “ineffective”. Also, the “EC50 on NKCC1-mediated K+ influx” value at NKCC1 is “inefficacy”. The “reduction of number of cells” value was 43% with U87 cell lines (day 3), 90% in the data set on U87 cell lines (day 5) and 70% with U87 cell lines (day 8). Moreover, the “reduction of cell number” value was determined as 55% in the data set on U87 cell lines (day 1), 89% with U87 cell lines (day 5) and 64% in the data set on U87 cell lines (day 8). The “cytotoxic effect (in words)” value in the data set with U87 cell lines is listed as “very strong cytotoxic effect”. Also, the reduction of invasion with U87 cells [2] came out at 15%. The “anti-invasive action (persistence of a trench)” value with U87 cells [2] is reported as “neither applications of mebendazole or bumetanide separately produced an anti-invasive action”. For the same molecule, the “dead cells / reduction of cell density” value in the data set on U87 cells [3] was determined as 50%. Further, the mean survival in the data set on glioblastoma is 49 days.
Take `C[C@@H]1O[C@@H](O[C@H]2C[C@@H](O)[C@]3(CO)[C@H]4[C@H](O)C[C@]5(C)[C@@H](C6=CC(=O)OC6)CC[C@]5(O)[C@@H]4CC[C@]3(O)C2)[C@H](O)[C@H](O)[C@H]1O` [ouabain]: the inhibition (commonly the share of the control response that was lost under treatment) at 100 µM in data set [1] (Homo sapiens) is 44%.
